# Assay results: ChEMBL document CHEMBL3352542, “Synthesis, biological evaluation and molecular modeling study of 2-(1,3,4-thiadiazolyl-thio and 4-methyl-thiazolyl-thio)-quinazolin-4-ones as a new class of DHFR inhibitors” (Bioorg Med Chem Lett, 2014)
# pIC50: −log10 of the molar value. Calls of active or inactive are those of the source. The rule behind the calls is not given here.
# Columns and labels:
# Candida albicans = assay: Antimicrobial activity against Candida albicans assessed as inhibition zone at 200 ug/disk after 24 hrs by disc-diffusion method; format: functional; conditions: read-out: IZ
# [1] = Growth inhibition of human MOLT4 cells at 10 uM after 48 hrs; format: functional; conditions: MOLT-4, 48 h, read-out: GI
# Dihydrofolate reductase = target: T1, Dihydrofolate reductase (Bos taurus, UniProt P00376); assay: Inhibition of bovine liver DHFR
# T1 sequence (P00376 whole entry): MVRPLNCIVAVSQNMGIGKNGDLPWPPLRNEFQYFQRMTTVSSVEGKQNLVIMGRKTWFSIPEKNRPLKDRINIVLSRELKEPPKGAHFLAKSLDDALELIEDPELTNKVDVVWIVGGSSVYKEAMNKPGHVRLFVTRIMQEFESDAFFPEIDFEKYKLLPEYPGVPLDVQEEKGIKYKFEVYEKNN
# [2] = Growth inhibition of human HCT116 cells at 10 uM after 48 hrs; format: functional; conditions: HCT-116, 48 h, read-out: GI
# M14 = assay: Growth inhibition of human M14 cells at 10 uM after 48 hrs; format: functional; conditions: M14, 48 h, read-out: GI
# Bacillus subtilis [3] = assay: Antimicrobial activity against Bacillus subtilis assessed as inhibition of visible growth after 24 hrs by disc-diffusion method; format: functional, organism-based
# [4] = Growth inhibition of human UACC62 cells at 10 uM after 48 hrs; format: functional; conditions: UACC-62, 48 h, read-out: GI
# T47D = assay: Growth inhibition of human T47D cells at 10 uM after 48 hrs; format: functional; conditions: read-out: GI
# [5] = Growth inhibition of human HCT15 cells at 10 uM after 48 hrs; format: functional; conditions: HCT-15, 48 h, read-out: GI
# Staphylococcus aureus [6] = assay: Antimicrobial activity against Staphylococcus aureus assessed as inhibition zone at 200 ug/disk after 24 hrs by disc-diffusion method; format: functional; conditions: read-out: IZ
# [7] = Growth inhibition of human HOP92 cells at 10 uM after 48 hrs; format: functional; conditions: HOP-92, 48 h, read-out: GI
# CCRF-CEM = assay: Growth inhibition of human CCRF-CEM cells at 10 uM after 48 hrs; format: functional; conditions: read-out: GI
# [8] = Growth inhibition of human PC3 cells at 10 uM after 48 hrs; format: functional; conditions: PC-3, 48 h, read-out: GI
# [9] = Growth inhibition of human LOXIMVI cells at 10 uM after 48 hrs; format: functional; conditions: LOX IMVI, read-out: GI
# SK-MEL-5 = assay: Growth inhibition of human SK-MEL-5 cells at 10 uM after 48 hrs; format: functional; conditions: SK-MEL-5, 48 h, read-out: GI
# [10] = Growth inhibition of human UO31 cells at 10 uM after 48 hrs; format: functional; conditions: UO-31, 48 h, read-out: GI
# NCI-H23 = assay: Growth inhibition of human NCI-H23 cells at 10 uM after 48 hrs; format: functional; conditions: NCI-H23, 48 h, read-out: GI
# [11] = Growth inhibition of human NCI-ADR-RES cells at 10 uM after 48 hrs; format: functional; conditions: read-out: GI
# Staphylococcus aureus [12] = assay: Antimicrobial activity against Staphylococcus aureus assessed as inhibition of visible growth after 24 hrs by disc-diffusion method; format: functional, organism-based
# A549 = assay: Growth inhibition of human A549 cells at 10 uM after 48 hrs; format: functional; conditions: A549, 48 h, read-out: GI
# K562 = assay: Growth inhibition of human K562 cells at 10 uM after 48 hrs; format: functional; conditions: K562, 48 h, read-out: GI
# A498 = assay: Growth inhibition of human A498 cells at 10 uM after 48 hrs; format: functional; conditions: A498, 48 h, read-out: GI
# [13] = Growth inhibition of human RXF393 cells at 10 uM after 48 hrs; format: functional; conditions: RXF 393, 48 h, read-out: GI
# Pseudomonas aeruginosa = assay: Antimicrobial activity against Pseudomonas aeruginosa assessed as inhibition zone at 200 ug/disk after 24 hrs by disc-diffusion method; format: functional; conditions: read-out: IZ
# [14] = Growth inhibition of human OVCAR8 cells at 10 uM after 48 hrs; format: functional; conditions: OVCAR-8, 48 h, read-out: GI
# Bacillus subtilis [15] = assay: Antimicrobial activity against Bacillus subtilis assessed as inhibition zone at 200 ug/disk after 24 hrs by disc-diffusion method; format: functional; conditions: read-out: IZ
# [16] = Growth inhibition of human OVCAR4 cells at 10 uM after 48 hrs; format: functional; conditions: OVCAR-4, 48 h, read-out: GI
# [17] = Growth inhibition of human UACC257 cells at 10 uM after 48 hrs; format: functional; conditions: UACC-257, 48 h, read-out: GI
# NCI-H226 = assay: Growth inhibition of human NCI-H226 cells at 10 uM after 48 hrs; format: functional; conditions: NCI-H226, 48 h, read-out: GI
# [18] = Growth inhibition of human OVCAR3 cells at 10 uM after 48 hrs; format: functional; conditions: OVCAR-3, 48 h, read-out: GI
# MDA-MB-231 = assay: Growth inhibition of human MDA-MB-231 cells at 10 uM after 48 hrs; format: functional; conditions: MDA-MB-231, 48 h, read-out: GI
# SF-268 = assay: Growth inhibition of human SF268 cells at 10 uM after 48 hrs; format: functional; conditions: SF-268, 48 h, read-out: GI
# Escherichia coli = assay: Antimicrobial activity against Escherichia coli assessed as inhibition zone at 200 ug/disk after 24 hrs by disc-diffusion method; format: functional; conditions: read-out: IZ
# SNB-75 = assay: Growth inhibition of human SNB75 cells at 10 uM after 48 hrs; format: functional; conditions: SNB-75, 48 h, read-out: GI
# U-251 = assay: Growth inhibition of human U251 cells at 10 uM after 48 hrs; format: functional; conditions: U-251, 48 h, read-out: GI
# KM12 = assay: Growth inhibition of human KM12 cells at 10 uM after 48 hrs; format: functional; conditions: KM12, 48 h, read-out: GI
# ACHN = assay: Growth inhibition of human ACHN cells at 10 uM after 48 hrs; format: functional; conditions: read-out: GI
# MDA-MB-468 = assay: Growth inhibition of human MDA-MB-468 cells at 10 uM after 48 hrs; format: functional; conditions: MDA-MB-468, 48 h, read-out: GI
# [19] = Growth inhibition of human RPMI8226 cells at 10 uM after 48 hrs; format: functional; conditions: RPMI-8226, 48 h, read-out: GI
# CAKI-1 = assay: Growth inhibition of human CAKI-1 cells at 10 uM after 48 hrs; format: functional; conditions: CAKI-1, 48 h, read-out: GI
# MCF7 = assay: Growth inhibition of human MCF7 cells at 10 uM after 48 hrs; format: functional; conditions: MCF7, 48 h, read-out: GI
# SR = assay: Growth inhibition of human SR cells at 10 uM after 48 hrs; format: functional; conditions: read-out: GI
# [20] = Growth inhibition of human SF295 cells at 10 uM after 48 hrs; format: functional; conditions: SF-295, 48 h, read-out: GI
# [21] = Growth inhibition of human Hs 578T cells at 10 uM after 48 hrs; format: functional; conditions: read-out: GI
# [22] = Growth inhibition of human SF539 cells at 10 uM after 48 hrs; format: functional; conditions: SF-539, 48 h, read-out: GI
smiles,measurement,setting,value
Cc1ccc2nc(Sc3sc(N)nc3C)n(Cc3ccccc3)c(=O)c2c1,zone of inhibition at 200 µg/disc,Candida albicans,12 mm
same,inhibition of growth at 10 µM,[1],34.2%
same,pIC50,Dihydrofolate reductase,5.30
same,inhibition of growth at 10 µM,[2],20.7%
same,inhibition of growth at 10 µM,M14,10.3%
same,Activity,Bacillus subtilis [3],Active
same,inhibition of growth at 10 µM,[4],22.8%
same,inhibition of growth at 10 µM,T47D,23.9%
same,inhibition of growth at 10 µM,[5],13.5%
same,zone of inhibition at 200 µg/disc,Staphylococcus aureus [6],18 mm
same,inhibition of growth at 10 µM,[7],50.2%
same,inhibition of growth at 10 µM,CCRF-CEM,14.9%
same,inhibition of growth at 10 µM,[8],34.5%
same,inhibition of growth at 10 µM,[9],19.5%
same,inhibition of growth at 10 µM,SK-MEL-5,25.8%
same,inhibition of growth at 10 µM,[10],35.5%
same,inhibition of growth at 10 µM,NCI-H23,19.2%
same,inhibition of growth at 10 µM,[11],20.3%
same,Activity,Staphylococcus aureus [12],Active
same,inhibition of growth at 10 µM,A549,22.1%
same,inhibition of growth at 10 µM,K562,17.4%
same,inhibition of growth at 10 µM,A498,21.9%
same,inhibition of growth at 10 µM,[13],17.8%
same,zone of inhibition at 200 µg/disc,Pseudomonas aeruginosa,8 mm
same,inhibition of growth at 10 µM,[14],16%
same,zone of inhibition at 200 µg/disc,Bacillus subtilis [15],21 mm
same,inhibition of growth at 10 µM,[16],18.7%
same,inhibition of growth at 10 µM,[17],11.6%
same,inhibition of growth at 10 µM,NCI-H226,22.7%
same,inhibition of growth at 10 µM,[18],19.2%
same,inhibition of growth at 10 µM,MDA-MB-231,14.2%
same,inhibition of growth at 10 µM,SF-268,10.8%
same,zone of inhibition at 200 µg/disc,Escherichia coli,8 mm
same,inhibition of growth at 10 µM,SNB-75,22.7%
same,inhibition of growth at 10 µM,U-251,12.2%
same,inhibition of growth at 10 µM,KM12,18.8%
same,inhibition of growth at 10 µM,ACHN,19.8%
same,inhibition of growth at 10 µM,MDA-MB-468,30.1%
same,inhibition of growth at 10 µM,[19],28.1%
same,inhibition of growth at 10 µM,CAKI-1,13.7%
same,inhibition of growth at 10 µM,MCF7,10.7%
same,inhibition of growth at 10 µM,SR,19%
same,inhibition of growth at 10 µM,[20],21.9%
same,inhibition of growth at 10 µM,[21],19.4%
same,inhibition of growth at 10 µM,[22],15.1%
